The results in this text go back to PubChem BioAssay (NCI).

In general, TGI refers to the concentration giving total growth inhibition. A low value points to more potent growth arrest. The GI50 is the concentration giving 50% growth inhibition.

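All cell lines were grown in 96-well plates and treated with compound for 48 hours. Here, GI50 denotes the concentration required for 50% inhibition of growth. TGI: total growth inhibition.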

Holding throughout (test): DTP human tumour cell line panel, 48 h
Assay [1] deals with HOP-62 NSCLC.
The subject of assay [2] is UO-31 renal.
For assay [3], the system named is CCRF-CEM leukemia.
In assay [4] the test system is HCC-2998 colon.
The test system of assay [5] is EKVX NSCLC.
In assay [6] the test system is A498 renal.
The test system of assay [7] is OVCAR-8 ovarian.
Assay [8] has as its system NCI-H522 lung.
The test system of assay [9] is MDA-MB-231 breast.
For assay [10], the system named is SR leukemia.

Regarding `CN(C)C(CN)CC1=C(CC(CN)N(C)C)CCC1` (centres undefined), the TGI in assay [1], in assay [2], in [3], in assay [4], in assay [5] and in [6] was more than 100 µM throughout. The TGI in assay [7] and in [8] was more than 100 µM each time.
For the compound `O=C1CCC(=Nc2ccc(Cl)cc2)N1C(=O)COc1ccc(OCC(=O)N2C(=O)CSC2=Nc2ccc(Cl)cc2)cc1`, the TGI in assay [1], in assay [2], in [4], in assay [5], in assay [6] and in assay [9] was more than 100 µM throughout. Also, the total growth inhibition concentration (TGI) in assay [7] and in assay [8] was more than 100 µM throughout.
For the compound `CCCCCCCCCC[C@H](O)[C@H]1CC[C@H]([C@H]2CC[C@H]([C@H](O)CC[C@H](O)CCCCCCC[C@@H](O)CC3=C[C@H](C)OC3=O)O2)O1`, the GI50 in assay [2] was 23.6 µM; in [3], 3.12 µM; in [6], 89.4 µM; in [9] it was more than 100 µM. Further, the TGI in assay [2], in assay [3], in assay [4], in assay [5], in [6] and in assay [9] was more than 100 µM throughout. The TGI in assay [7] and in assay [8] was more than 100 µM in each case.
As to `COc1cc(/C=C/C(=O)O)ccc1C(=O)O/C=C/c1ccccc1`, the concentration for total growth inhibition (TGI) in assay [1], in [2], in assay [3], in [5], in assay [6] and in [7] was more than 100 µM throughout. The compound also had a TGI in [8] of more than 100 µM.
As for `O=C(CP(=O)(O)O)c1cccs1`, the TGI in assay [1], in assay [2], in assay [3], in assay [4], in [5] and in assay [6] was more than 100 µM in each case. The TGI in [7] and in [8] was more than 100 µM throughout.
With `c1ccc2c(c1)[nH]c1nc3cc(-c4ccc5nc6c(nc5c4)[nH]c4ccccc46)ccc3nc12`, the total growth inhibition concentration (TGI) in [1], in assay [2], in [3], in assay [4], in assay [5] and in [6] was more than 100 µM throughout. For the same compound, the results for the total growth inhibition concentration (TGI) in assay [9], in [7] and in assay [8] were 97 µM, more than 100 µM and 78.4 µM, respectively.
For the compound `N#Cc1c(-c2ccccc2)/c(=C\Nc2ccc(Cl)cc2)c(=O)n2c1nc1ccccc12`, the TGI is more than 100 µM in assay [1]; more than 100 µM in assay [2]; 84.9 µM in assay [3]; more than 100 µM in assay [4]; more than 100 µM in [6]; more than 100 µM in assay [9]. The concentration for total growth inhibition (TGI) in assay [7] and in assay [8] was more than 100 µM throughout.
`CC(CC(C#N)(c1ccccc1)c1ccccc1)N1CCCCC1` (centres undefined): the TGI in assay [1] worked out at 88.4 µM; in assay [2], 79.6 µM; in assay [3] it was 46.6 µM; in assay [4] it was 29.1 µM; in assay [5] it was 56.3 µM; in [6] it was 85.1 µM. The TGI in assay [9] was 63.8 µM; in assay [7] it was more than 100 µM; in assay [8], 36.7 µM.
In the case of `Oc1ccc(-c2nnc3sc(-c4ccc(F)cc4)nn23)cc1`, the GI50 in [2] was more than 100 µM; in [3] it was 55.7 µM; in [4], more than 100 µM; in assay [5] it was 70.8 µM; in [9], 10.6 µM; in [7] it was 48.3 µM. Besides, the GI50 in assay [8] is 62 µM; in [10] it was 15.1 µM. In addition, the TGI was more than 100 µM in [2]; more than 100 µM in assay [3]; more than 100 µM in assay [4]; more than 100 µM in [5]; 46.8 µM in assay [9]; more than 100 µM in assay [7]. Also, the TGI in [8] and in assay [10] was more than 100 µM throughout.
For the compound `COc1cc(/C=C2\C(=O)N(C(=O)Cc3ccccc3)N=C2C)ccc1O`, the TGI in assay [1], in assay [2], in assay [3], in [4], in assay [5] and in assay [7] was more than 100 µM each time. For the same compound, the concentration for total growth inhibition (TGI) in assay [8] and in assay [10] was more than 100 µM each time.
For `COCOc1ccc(OC)cc1`, the TGI in assay [1], in assay [2], in assay [3], in [4], in assay [5] and in [6] was more than 100 µM throughout. This compound also gave a TGI in assay [7] of more than 100 µM.
For `COc1ccc2c(c1)O/C(=C\c1cccc(OCC(=O)Nc3nc4c(s3)CCCC4)c1)C2=O`, the GI50 in assay [1] is more than 34 µM; in assay [2], 1.69 µM; in assay [3], 2.07 µM; in [4], more than 100 µM; in [5] it was more than 66.3 µM; in assay [6], more than 42.5 µM. For the same compound, the GI50 in [9] is 6.58 µM; in assay [7], more than 21.7 µM; in assay [8] it was 3.79 µM. Moreover, the TGI in assay [1] was more than 55.4 µM; in [2], 3.15 µM; in assay [3] it was 7.79 µM; in [4], more than 100 µM; in assay [5], more than 100 µM; in [6], more than 100 µM. In addition, the TGI is more than 53.9 µM in assay [9], more than 70.4 µM in assay [7] and 13.9 µM in assay [8].
In the case of `C/C(=C\c1ccccc1)C(=O)CCN1CCOCC1`, the TGI in [1] was more than 100 µM; in assay [2], 41.5 µM; in [3] it was more than 67.2 µM; in assay [4], 34.4 µM; in assay [5], 42.7 µM; in assay [6] it was more than 100 µM. In addition, the concentration for total growth inhibition (TGI) in assay [7] was determined as 41.4 µM; in assay [8] it was 22.3 µM.
Turning to `C/C(=N/NC(N)=S)c1ccc2ccccc2c1`, the TGI in assay [1] is more than 100 µM; in assay [3] it was more than 100 µM; in assay [4] it was 34.9 µM; in assay [5] it was 37.3 µM; in assay [6] it was more than 100 µM; in assay [7] it was more than 100 µM. The total growth inhibition concentration (TGI) in assay [8] is 41 µM; in assay [10], more than 100 µM.
